Results on nine molecules are retold here after patent US10548318B2, “N-(tetrazol-5-yl)- and N-(triazol-5-yl)arylcarboxamide derivatives with herbicidal action” (Bayer CropScience Aktiengesellschaft, priority 2015, dated 2020).

Where only a bound is given, the exact number is not on record here.

Common to all, as to format: in vivo
Experiment [1] relates to Amaranthus retroflexus. The experiment in a line: Pre-emergence herbicidal action against harmful plants. The following applies: 504 h, application rate 320 g/ha, visual scoring after 3 weeks vs untreated controls, read-out: herbicidal activity in percent against Amaranthus retroflexus. The source says: (§1) Seeds of monocotyledonous and dicotyledonous weed plants and crop plants are laid out in wood-fiber pots in sandy loam and covered with soil. The compounds of the invention, formulated in the form of wettable powders (WP) or as emulsion concentrates (EC), are then applied to the surface of the covering soil in the form of an aqueous suspension or emulsion at a water application rate equating to 600 to 800 I/ha, with addition of 0.2% wetting agent. After the treatment, the pots are placed in a greenhouse and kept under good growth conditions for the trial plants. The damage to the test plants is scored visually after a test period of 3 weeks by comparison with untreated controls (herbicidal activity in percent (%): 100% activity=the plants have died, 0% activity=like control plants). Here, for example, the compounds Nos. 1-384, 1-390, 3-384, 5-384, 19-384, 9-390, 21-384, 23-384 and 28-390, at an application rate of 320 g/ha, each show an activity of at least 80% against Stellaria media and Amaranthus retroflexus.

Experiment [2] deals with Stellaria media. The description is as above. The following applies: 504 h, application rate 320 g/ha, visual scoring after 3 weeks vs untreated controls, read-out: herbicidal activity in percent against Stellaria media.
Description: as §1

For experiment [3], the system named is Stellaria media. The experiment in a line: Post-emergence herbicidal action against harmful plants. The following applies: 504 h, application rate 80 g/ha, visual assessment after about 3 weeks vs untreated controls, read-out: herbicidal action in percent against Stellaria media. As for the experimental part:
(§2) Seeds of monocotyledonous and dicotyledonous weed and crop plants are laid out in sandy loam soil in wood-fiber pots, covered with soil and cultivated in a greenhouse under good growth conditions. 2 to 3 weeks after sowing, the test plants are treated at the one-leaf stage. The compounds of the invention, formulated in the form of wettable powders (WP) or as emulsion concentrates (EC), are then sprayed onto the green parts of the plants in the form of an aqueous suspension or emulsion at a water application rate equating to 600 to 800 I/ha, with addition of 0.2% wetting agent. After the test plants have been left to stand in the greenhouse under optimal growth conditions for about 3 weeks, the action of the preparations is assessed visually in comparison to untreated controls (herbicidal action in percent (%): 100% activity=the plants have died, 0% activity=like control plants). Here, for example, the compounds Nos. 1-384, 1-390, 3-384, 5-384, 19-384, 9-390, 21-384, 23-384, 28-390 and 32-384, at an application rate of 80 g/ha, each show an activity of at least 80% against Stellaria media and Veronica persica.

In experiment [4] the test system is Veronica persica. Described as above. The following applies: 504 h, application rate 80 g/ha, visual assessment after about 3 weeks vs untreated controls, read-out: herbicidal action in percent against Veronica persica. On the procedure: as §2
For experiment [5], the system named is Polygonum convolvulus (POLCO). Briefly: Comparative experiment in pre-emergence. The settings on record: dosage 320 g/ha.
Description: as §1
For comparative purposes, the herbicidal activity of some compounds according to the invention and the most structurally similar compounds known from the prior art were tested.

As to `CCOC(=O)OC(C)n1nnn(C)c1=NC(=O)c1ccc(C(F)(F)F)c(SC)c1Cl` (stereo not shown) [No. 1-384, 1-(5-{[2-chloro-3-(methylsulfanyl)-4-(trifluoromethyl)benzoyl]imino}-4-methyl-4,5-dihydro-1H-tetrazol-1-yl)ethyl ethyl carbonate], the pest or weed control at 320 g/ha in experiment [1] and in experiment [2] was at least 80% in each case. The pest or weed control at 80 g/ha in experiment [3] and in experiment [4] was at least 80% in each case.
In the case of `CCOC(=O)OC(C)n1nnn(C)c1=NC(=O)c1ccc(C)c(S(C)(=O)=O)c1Cl` (stereo not shown) [No. 1-390, 1-(5-{[2-chloro-4-methyl-3-(methylsulfonyl)benzoyl]imino}-4-methyl-4,5-dihydro-1H-tetrazol-1-yl)ethyl ethyl carbonate], the pest or weed control at 320 g/ha in experiment [1] and in experiment [2] was at least 80% throughout. The pest or weed control at 80 g/ha in experiment [3] and in experiment [4] was at least 80% throughout. For the same molecule, the “Herbicidal activity against POLCO” value in experiment [5] was found to be 100%.
As for `COC(=O)OC(C)n1nnn(C)c1=NC(=O)c1ccc(C(F)(F)F)c(SC)c1Cl` (stereo not shown) [No. 3-384, 1-(5-{[2-chloro-3-(methylsulfanyl)-4-(trifluoromethyl)benzoyl]imino}-4-methyl-4,5-dihydro-1H-tetrazol-1-yl)ethyl methyl carbonate], the pest or weed control at 320 g/ha in experiment [1] and in experiment [2] was at least 80% in each case. Also, the pest or weed control at 80 g/ha in experiment [3] and in experiment [4] was at least 80% in each case.
Regarding `CSc1c(C(F)(F)F)ccc(C(=O)N=c2n(C)nnn2C(C)OC(=O)OC2CCCCC2)c1Cl` (stereo not shown) [No. 5-384, 1-(5-{[2-chloro-3-(methylsulfanyl)-4-(trifluoromethyl)benzoyl]imino}-4-methyl-4,5-dihydro-1H-tetrazol-1-yl)ethyl cyclohexyl carbonate], the pest or weed control at 320 g/ha in experiment [1] and in experiment [2] was at least 80% throughout. The pest or weed control at 80 g/ha in experiment [3] and in experiment [4] was at least 80% in each case.
Consider `CCOC(=O)OC(C)OC(=Nc1nnnn1C)c1ccc(C(F)(F)F)c(SC)c1Cl` (stereo not shown) [No. 19-384, 1-[(ethoxycarbonyl)oxy]ethyl 2-chloro-3-(methylsulfanyl)-N-(1-methyl-1H-tetrazol-5-yl)-4-(trifluoromethyl)benzenecarboximidate], for which the pest or weed control at 320 g/ha in experiment [1] and in experiment [2] was at least 80% each time. For the same molecule, the pest or weed control at 80 g/ha in experiment [3] and in experiment [4] was at least 80% in each case.
`CCOC(=O)OC(C)OC(=Nc1nnnn1C)c1ccc(C)c(S(C)(=O)=O)c1Cl` (stereo not shown) [No. 19-390, 1-[(ethoxycarbonyl)oxy]ethyl 2-chloro-4-methyl-3-(methylsulfonyl)-N-(1-methyl-1H-tetrazol-5-yl)benzenecarboximidate]: in experiment [5], the “Herbicidal activity against POLCO” value stood at 100%.
For the molecule `COC(=O)OC(C)OC(=Nc1nnnn1C)c1ccc(C(F)(F)F)c(SC)c1Cl` (stereo not shown) [No. 21-384, 1-[(Methoxycarbonyl)oxy]ethyl 2-chloro-3-(methylsulfanyl)-N-(1-methyl-1H-tetrazol-5-yl)-4-(trifluoromethyl)benzenecarboximidate], the pest or weed control at 320 g/ha in experiment [1] and in experiment [2] was at least 80% in each case. The pest or weed control at 80 g/ha in experiment [3] and in experiment [4] was at least 80% each time. The “Herbicidal activity against POLCO” value in experiment [5] is 100%.
Regarding `CSc1c(C(F)(F)F)ccc(C(=Nc2nnnn2C)OC(C)OC(=O)OC2CCCCC2)c1Cl` (stereo not shown) [No. 23-384, 1-{[(cyclohexyloxy)carbonyl]oxy}ethyl 2-chloro-3-(methylsulfanyl)-N-(1-methyl-1H-tetrazol-5-yl)-4-(trifluoromethyl)benzenecarboximidate], the pest or weed control at 320 g/ha in experiment [1] and in experiment [2] was at least 80% in each case. The pest or weed control at 80 g/ha in experiment [3] and in experiment [4] was at least 80% in each case. Further, the “Herbicidal activity against POLCO” value in experiment [5] is 90%.
For the molecule `CCOC(=O)OC(C)N(C(=O)c1ccc(C)c(S(C)(=O)=O)c1Cl)c1nnnn1C` (stereo not shown) [No. 28-390, 1-{[2-chloro-4-methyl-3-(methylsulfonyl)benzoyl](1-methyl-1H-tetrazol-5-yl)amino}ethyl ethyl carbonate], the pest or weed control at 320 g/ha in experiment [1] and in experiment [2] was at least 80% throughout. In addition, the pest or weed control at 80 g/ha in experiment [3] and in experiment [4] was at least 80% in each case. Moreover, the “Herbicidal activity against POLCO” value in experiment [5] was determined as 90%.
